Measurements published in patent publication US9308230B2, “Combination of proanthocyanidins and centella asiatica for the treatment of atherosclerosis” (HORPHAG RESEARCH IP, priority 2009, dated 2016).

System: hypoechoic-echolucent carotid and femoral atherosclerotic plaques
Test: Grey Scale Median (GSM) ultrasound measurement of echolucent carotid and femoral atherosclerotic plaques, prospective 6-month trial
Format: in vivo, human
Details: once daily for 6 months, 100 mg/day of each component; responders/patients in group; ** = significant vs initial value and control
Description: Variation in echogenicity of echolucent carotid and femoral atherosclerotic plaques with combined treatment (Pycnogenol 100 mg+TTFCA 100 mg, with or without Aspirin 100 mg). A prospective, pilot 6-month trial. (TTFCA=total triterpenic fraction of Centella asiatica) This study has evaluated whether a combination of Pycnogenol® and TTFCA, with or without Aspirin, was effective in reducing plaque progression and cardiovascular risk of events by decreasing platelet aggregation, local arterial inflammation and the intima-media scarring process due to inflammation at the level of carotid and femoral arteries bifurcations. This prospective placebo-controlled trial had the purpose of evaluating the effects of Pycnogenol® and TTFCA, with or without Aspirin, selectivity on hypoechoic-echolucent plaques. The sonographic examination of carotid plaques was made with high-resolution ultrasound. Capturing plaques images, digital image processing, and normalization were standardized. The interobserver, […], gain-level variability were also standardized using as reference blood (black) for the most echolucent parts of the plaque and the adventitia (white) as the most echogenic part. The technique for plaque characterization and GSM (Grey Scale Median) measurements had been previously described in details. […]

CC(=O)Oc1ccccc1C(=O)O [Aspirin, acetylsalicylic acid]
At 6 months: number of patients with an increase of plaques Grey Scale Median of at least 5 points: 2/18
